# Experiments:
# Format in all cases: cell-based
# [1] = system: Caco-2 cells; assay: Proliferation assay, Caco-2; conditions: Homo sapiens, Caco-2, 96 h; 4 days, crystal violet; read-out: Inhibition of Caco-2 cell proliferation IC50
# Protocol: (§1) Cultivated tumour cells (HeLa, human cervical tumour cells, ATCC CCL-2; NCI-H460, human non-small cell lung carcinoma cells, ATCC HTB-177; DU 145, hormone-independent human prostate carcinoma cells, ATCC HTB-81; HeLa-MaTu-ADR, multidrug-resistant human cervical carcinoma cells, EPO-GmbH Berlin; Caco-2, human colorectal carcinoma cells, ATCC HTB-37; B16F10, mouse melanoma cells, ATCC CRL-6475) were plated at a density of 5,000 cells/well (DU145, HeLa-MaTu-ADR), 3,000 cells/well (NCI-H460, HeLa), 1,500 cells/well (Caco-2), or 1,000 cells/well (B16F10) in a 96-well multititer plate in 200 μL of their respective growth medium supplemented 10% fetal calf serum. After 24 hours, the cells of one plate (zero-point plate) were stained with crystal violet (see below), while the medium of the other plates was supplemented with the test substances in various concentrations (0 μM, as well as in the range of 0.0001-10 μM; the final concentration of the solvent dimethyl sulfoxide was adjusted to 0.1%) using a Hewlett-Packard HP D300 Digital Dispenser. The cells were incubated for 4 days in the presence of test substances. Cell proliferation was determined by staining the cells with crystal violet: the cells were fixed by adding 20 μl/measuring point of an 11% glutaric aldehyde solution for 15 minutes at room temperature. After three washing cycles of the fixed cells with water, the plates were dried at room temperature. The cells were stained by adding 100 μl/measuring point of a 0.1% crystal violet solution (pH 3.0). After three washing cycles of the stained cells with water, the plates were dried at room temperature. The dye was dissolved by adding 100 μl/measuring point of a 10% acetic acid solution. The extinction was determined by photometry at a wavelength of 595 nm. The change of cell number, in percent, was calculated by normalization of the measured values to the extinction values of the zero-point plate (=0%) and the extinction of the untreated ([…]) cells (=100%). The IC50 values (inhibitory concentration at 50% of maximal effect) were determined by means of a 4 parameter fit. A2780 human ovarian carcinoma cells (ECACC #93112519) and non-adherent MOLM-13 human acute myeloid leukemia cells (DSMZ ACC 554) were seeded at a density of 3,000 cell/well (A2780) or 5,000 cells/well (MOLM-13) in a 96-well multititer plate in 150 μL of growth medium supplemented 10% fetal calf serum. After 24 hours, cell viability of one plate (zero-point plate) was determined with the Cell Titre-Glo Luminescent Cell Viability Assay (Promega), while the medium of the other plates was supplemented with the test substances in various concentrations (0 μM, as well as in the range of 0.0001-10 μM; the final concentration of the solvent dimethyl sulfoxide was adjusted to 0.1%) using a Hewlett-Packard HP D300 Digital Dispenser. Cell viability was assessed after 72-hour exposure with the Cell Titre-Glo Luminescent Cell Viability Assay (Promega). IC50 values (inhibitory concentration at 50% of maximal effect) were determined by means of a 4 parameter fit on measurement data which were normalized to vehicle (DMSO) treated cells (=100%) and measurement readings taken immediately before compound exposure (=0%).
# [2] = system: HeLa cells; assay: Proliferation assay, HeLa; conditions: Homo sapiens, 96 h, 4 days, crystal violet, read-out: Inhibition of HeLa cell proliferation IC50
# Protocol: as §1
# [3] = system: NCI-H460 cells; assay: Proliferation assay, NCI-H460; conditions: Homo sapiens, NCI-H460, 96 h; 4 days, crystal violet; read-out: Inhibition of NCI-H460 cell proliferation IC50
# Protocol: as §1
# [4] = system: MOLM-13 cells; assay: Proliferation assay, MOLM-13; conditions: Homo sapiens, 72-hour exposure, Cell Titre-Glo, read-out: Inhibition of MOLM-13 cell proliferation IC50
# Protocol: as §1
Structure (SMILES),IC50 [1],IC50 [2],IC50 [3],IC50 [4]
"CS(=N)(=O)Cc1cc2cc(c1)OCCCCCOc1cc(ccc1F)-c1nc(ncc1F)N2 (racemic) [Example 6, (rac)-3,21-difluoro-10-[(S-methylsulfonimidoyl)methyl]-13,19-dioxa-5,7,26-triazatetracyclo[18.3.1.1^2,6.1^8,12]hexacosa-1(24),2(26),3,5,8(25),9,11,20,22-nonaene]",144 nM,199 nM,277 nM,140 nM
"CS(=N)(=O)Cc1cc2nc(c1)OCCCCOc1cc(ccc1F)-c1cc(ncc1F)N2 (racemic) [Example 2, (rac)-3,20-difluoro-10-[(S-methylsulfonimidoyl)methyl]-13,18-dioxa-5,7,24-triazatetracyclo[17.3.1.1^2,6.1^8,12]pentacosa-1(23),2(25),3,5,8(24),9,11,19,21-nonaene]",96 nM,90 nM,157 nM,27 nM
"CS(=N)(=O)Cc1cc2cc(c1)OCCCCOc1cc(ccc1F)-c1nc(ncc1F)N2 (racemic) [Example 4, (rac)-3,20-difluoro-10-[(S-methylsulfonimidoyl)methyl]-13,18-dioxa-5,7,25-triazatetracyclo[17.3.1.1^2,6.1^8,12]pentacosa-1(23),2(25),3,5,8(24),9,11,19,21-nonaene]",177 nM,150 nM,331 nM,20 nM
"CC(C)(C)OC(=O)N=S(C)(=O)Cc1cc2cc(c1)OCCCCOc1cc(ccc1F)-c1nc(ncc1F)N2 (racemic) [Example 3, (rac)-tert-butyl [{[3,20-difluoro-13,18-dioxa-5,7,25-triazatetracyclo[17.3.1.1^2,6.1^8,12]pentacosa-1(23),2(25),3,5,8(24),9,11,19,21-nonaen-10-yl]methyl}(methyl)oxido-λ^6-sulfanylidene]carbamate]",163 nM,244 nM,267 nM,108 nM
"CC(C)(C)OC(=O)N=S(C)(=O)Cc1cc2cc(c1)OCCCCCOc1cc(ccc1F)-c1nc(ncc1F)N2 (racemic) [Example 5, (rac)-tert-butyl [{[3,21-difluoro-13,19-dioxa-5,7,26-triazatetracyclo[18.3.1.1^2,6.1^8,12]hexacosa-1(24),2(26),3,5,8(25),9,11,20,22-nonaen-10-yl]methyl}(methyl)oxido-λ^6-sulfanylidene]carbamate]",658 nM,964 nM,479 nM,228 nM

# Second part, the compound after the results:
IC50 [1],IC50 [2],IC50 [3],IC50 [4],Structure (SMILES)
181 nM,177 nM,217 nM,45 nM,"CS(=N)(=O)Cc1cc2cc(c1)OCCCCOc1c(F)ccc(c1F)-c1nc(ncc1F)N2 (racemic) [Example 8, (rac)-3,20,23-trifluoro-10-[(S-methylsulfonimidoyl)methyl]-13,18-dioxa-5,7,25-triazatetracyclo[17.3.1.1^2,6.1^8,12]pentacosa-1(23),2(25),3,5,8(24),9,11,19,21-nonaene]"
159 nM,128 nM,238 nM,33 nM,"CS(=N)(=O)Cc1cc2cc(c1)OCCCOc1cc(ccc1F)-c1nc(ncc1F)N2 (racemic) [Example 10, (rac)-3,19-difluoro-10-[(S-methylsulfonimidoyl)methyl]-13,17-dioxa-5,7,24-triazatetracyclo[16.3.1.1^2,6.1^8,12]tetracosa-1(22),2(24),3,5,8(23),9,11,18,20-nonaene]"
